A word on the melting point: it is the temperature, or range, at which the solid turns liquid. `O=C(O)c1cc(S)ccc1[N+](=O)[O-]` returned a melting point of 234 to 236 °C.

Compound `CC1(C)C(=O)NCCN1Cc1ccccc1` returned a melting point of 212 to 214 °C.

Turning to `Nc1nn2cc(-c3ccccc3)nc2s1`, the melting point is 183 to 185 °C.

As to `Fc1ccc2c(C3CCNCC3)c[nH]c2c1`, the melting point was 225 to 227 °C.

As for `COCc1c(C(=O)O)sc2ccccc12`, the melting point fell in the range of 159 to 161 °C.

The compound `CN(C)C1=CC(=C(N)N=O)C=CN1` yielded a melting point of 129 to 131 °C.

As to `Cc1nc(Cl)cc(-c2ccncc2)n1`, the melting point is 111 to 113 °C.

As to `Cc1cc(N2CCCC(N)C2=O)n(C)n1` (stereo not given), the melting point fell in the range of 88 to 90 °C.

Take `O=C(O)c1ccc2c(=O)n3c(nc2c1)CCCCC3`: the melting point fell in the range of 276 to 278 °C.

Compound `Cn1c(S)nnc1-c1ccccc1Cl` showed a melting point of 144 to 146 °C.

The compound `CC(C)NS(=O)(=O)c1ccccc1CN` came in with a melting point of 79 to 81 °C.

As for `O=C(O)c1noc(-c2cc(F)ccc2F)n1`, the melting point is 119 to 121 °C.

`Nc1nncc(-c2ccccc2OC(F)F)n1` yielded a melting point of 159 to 161 °C.

In turn, `Cc1[nH]c(=O)c(C(=O)O)cc1-c1ccc(O)cc1` showed a melting point of 296 to 298 °C.

`NS(=O)(=O)c1ccc(OCCSCC(=O)O)cc1`: the melting point is 196 to 198 °C.

Regarding `Fc1ccc(CNc2nnc(S)s2)cc1`, the melting point fell in the range of 168 to 170 °C.

Turning to `NS(=O)(=O)Cc1ccc(F)cc1F`, the melting point was in the range of 139 to 141 °C.

Regarding `Cn1ncc2c(Cl)nc(Cl)nc21`, the melting point lay within 86 to 88 °C.

Regarding `O=C1CCOc2ccccc2N1`, the melting point was 109 to 111 °C.

For the compound `Cc1c(C(=O)O)c(=O)oc2cc(F)ccc12`, the melting point was 169 to 171 °C.

`O=C(O)c1cccc(S)c1`: the melting point is 144 to 147 °C.

For the compound `O=C(O)c1ccc(CCC(F)(F)F)cc1`, the melting point was 211 to 213 °C.

`CCc1nc(C(=O)O)nn1-c1c(Cl)cccc1Cl` displayed a melting point of 197 to 199 °C.

`CC(C)(C)OC(=O)NC1CCCCCC1O` (stereo not given) gave a melting point of 85 to 87 °C.

Consider `Cc1ccccc1/C=C/c1cc(C(=O)O)c2cc(Br)ccc2n1`, for which the melting point is 289 to 291 °C.

In turn, `COc1cccc(CN2C(=O)NC(=O)C2=O)c1` displayed a melting point of 139 to 141 °C.

On to `COc1cc(C=O)c(SC)cc1OC`, for which the melting point was in the range of 111 to 113 °C.

In the case of `C=Cc1nc2sc3c(c2c(=O)[nH]1)CCCC3`, the melting point was 209 to 211 °C.

Turning to `COc1ccc2cc(C=CC#N)ccc2c1`, the melting point fell in the range of 124 to 126 °C.

As to `CCCCCCCCCCCCSc1nc2ccccc2c(=O)n1-c1ccccc1`, the melting point fell in the range of 62 to 64 °C.

With `O=C(O)CCCSc1ccc(Cl)cc1`, the melting point was in the range of 106 to 108 °C.

The compound `COc1ccccc1NC(=O)c1ccc(NC(=O)C(C)Cl)cc1` (stereo not given) registered a melting point of 149 to 151 °C.

For the compound `O=C(O)c1c[nH]nc1-c1cccnc1`, the melting point was 255 to 257 °C.

Compound `O=C(O)CCOc1cccc(Br)c1` displayed a melting point of 60 to 69 °C.

Compound `Cc1cccc(-c2nonc2N)c1` came in with a melting point of 77 to 79 °C.

`O=C1CC2(CCOC2)CN1` (stereo not given): the melting point was in the range of 63 to 65 °C.

Turning to `N#CCc1ccc(Oc2ccc(C(=O)O)cc2)cc1`, the melting point was in the range of 183 to 185 °C.

With `O=C(O)c1ccnc(N2CCCCC2)n1`, the melting point is 99 to 101 °C.

For the compound `CCOc1cc(C(=O)O)cc(Br)c1OC`, the melting point was 182 to 184 °C.

For the compound `CC(=O)Nc1ccc(S(=O)(=O)NCc2ccc(C(=O)O)cc2)cc1`, the melting point lay within 269 to 271 °C.

The compound `CC(Cl)C(=O)Nc1cccc(Cl)c1` (stereo not given) came in with a melting point of 98 to 100 °C.

Turning to `CCOc1ccc(NC(C)=O)cc1S(N)(=O)=O`, the melting point was 187 to 189 °C.

The compound `O=C(O)C(=Cc1ccco1)NC(=O)c1ccccc1` had a melting point of 209 to 211 °C.

`Cc1nc(CCl)nc2ccccc12` gave a melting point of 60 to 62 °C.

Compound `CCCCCCn1nc(C(=O)O)c2ccccc2c1=O` showed a melting point of 124 to 126 °C.

Turning to `O=C1CC2(CCOCC2)CN1`, the melting point was 132 to 134 °C.

In turn, `O=C(CC(F)(F)F)c1ccccc1` had a melting point of 37 to 39 °C.

In turn, `Cc1nc(N)[nH]c(=O)c1CC(=O)O` came in with a melting point of 313 to 315 °C.

Turning to `Cc1[nH]oc(=N)c1-c1cccc(Cl)c1`, the melting point was 148 to 150 °C.

In turn, `N#Cc1ccc(NC(=O)NC(CCC(=O)O)C(=O)O)cc1` (stereo not given) had a melting point of 169 to 171 °C.

`CCCCc1ccc(N2C(=O)C=CC2=O)cc1` had a melting point of 40 to 44 °C.

`O=C(O)c1c[nH]c2ccc(Br)cc12` yielded a melting point of 238 to 240 °C.

`O=C(O)c1ccn(-c2cccc([N+](=O)[O-])c2)n1` returned a melting point of 230 to 232 °C.

In turn, `CC(=O)Oc1ccc(CCl)cc1` displayed a melting point of 29 to 31 °C.

Take `Nc1cnc(-c2ccccc2)nc1`: the melting point was 81 to 83 °C.

Consider `c1ccc2oc(-c3ccncc3)cc2c1`, for which the melting point fell in the range of 73 to 75 °C.

As to `OCc1nc2cc(Cl)ccc2s1`, the melting point was 113 to 115 °C.

The compound `Clc1nc(CN2CCCCC2)nc2scc(-c3ccccc3)c12` had a melting point of 79 to 81 °C.

For `Cc1cc(NC(=O)CCl)no1`, the melting point lay within 182 to 190 °C.

`Cc1c(Cl)cc(N)cc1Cl`: the melting point lay within 55 to 57 °C.

`COc1cc(C(=O)O)cc([N+](=O)[O-])c1OC` displayed a melting point of 193 to 195 °C.

`Cc1c(NCC(C)(C)C)cccc1C(=O)O` had a melting point of 135 to 137 °C.

The compound `O=C(O)c1sc(C2CC2)nc1C(F)(F)F` displayed a melting point of 146 to 148 °C.

On to `Cn1ccnc1C(=O)c1ccccc1Cl`, for which the melting point lay in the range of 99 to 101 °C.

In the case of `O=C(O)c1ccccc1NS(=O)(=O)c1ccc(F)cc1`, the melting point lay in the range of 165 to 167 °C.

In turn, `Cc1ccccc1-n1nc(-c2ccccc2)cc1N` showed a melting point of 109 to 111 °C.

`NC(=Nc1ccccc1)N1CCCCC1` showed a melting point of 61 to 63 °C.

`CCCNS(=O)(=O)c1cccc(C(=O)O)c1` came in with a melting point of 199 to 201 °C.

Take `COc1cccc(-c2ccc(CN)cc2)c1`: the melting point fell in the range of 46 to 48 °C.

Turning to `CCOc1cccc(C=O)c1OC(F)F`, the melting point lay in the range of 41 to 43 °C.

With `CCC1CCC2(CC1)NC(=O)N(CC(=O)O)C2=O` (stereo not given), the melting point is 214 to 216 °C.

Turning to `O=C(O)CCCOc1cccc(Cl)c1Cl`, the melting point was 121 to 123 °C.

For `O=C(O)c1csc(-c2cc(Br)cs2)n1`, the melting point was in the range of 229 to 231 °C.

Turning to `Cc1ccc(C#N)nc1Br`, the melting point lay in the range of 130 to 132 °C.

On to `CCOc1ccc(Oc2ccc(C(F)(F)F)cc2N)cc1`, for which the melting point lay within 45 to 47 °C.

Consider `O=C1COc2ccc(C(F)(F)F)cc2N1`, for which the melting point fell in the range of 165 to 167 °C.

In turn, `CCOC(=O)CC(=O)CN1C(=O)c2ccccc2S1(=O)=O` gave a melting point of 104 to 106 °C.

As for `CN(c1ccc(O)cc1)S(=O)(=O)c1cccs1`, the melting point lay in the range of 149 to 151 °C.

As for `O=C(O)c1ccc2c(c1)C(=O)N(Cc1ccco1)C2=O`, the melting point was 172 to 176 °C.

`CN(C)c1ncnc2cc(C(=O)O)ccc12` had a melting point of 323 to 325 °C.

For the compound `O=C(O)CS(=O)(=O)c1ccc(Cl)cc1`, the melting point is 122 to 124 °C.

Consider `O=C1C2C3CC4C2C(=O)C2C1C3C42` (stereo not given), for which the melting point lay within 240 to 242 °C.

The compound `CN(C)c1ccc(Cn2nccc2N)cc1` displayed a melting point of 60 to 62 °C.

On to `NC1CCCC(C(=O)NC2CC2)C1` (stereo not given), for which the melting point lay within 97 to 99 °C.

`COc1ccc(-c2nnc(N)o2)cc1OC` showed a melting point of 235 to 237 °C.

These data come from a melting point compilation (Tetko et al.).
